Laboratory results published in patent publication US10420815B2, “Combinational therapy for synergistic inhibition of gram-positive and gram-negative bacteria” (priority 2015, dated 2019).
Entries after “also recorded” stand apart in the source; their conditions may differ. Read-outs that look alike come from different tables or passages of the source.

Legend:
MRSA USA300 (BAA-1680) [1] = assay: microbe, parasite or virus in culture; assay type: cell-based, Staphylococcus aureus; design: MBC of bacitracin in combination with OG / fold reduction in bacitracin MBC: dose or concentration left out as unconfirmed; conditions: for MBC of bacitracin in combination with alkyl gallate / fold decrease in bacitracin MBC: 5 μg ml^−1 alkyl gallate; for fold decrease in bacitracin MBC: versus bacitracin MBC 200 U; for bactericidal activity in combination with bacitracin: FIG. 2; for MBC / MIC: agent alone
Source text: (§1) MRSA (ATCC 33593), MSSA (ATCC 29213), and MRSA USA300 (BAA-1680) strains were purchased from the American Type Culture Collection (ATCC; Manassas, Va.). Eight clinical isolates of MRSA were obtained from the Culture Collection of Antimicrobial Resistant Microbes, Korea National Research Resource Center (KNRRC). Salmonella enterica Typhimurium LT2 was purchased from ATCC, and Escherichia coli O157:H7 is a kind gift from Dr. Sangryeol Ryu (Seoul National University, South Korea). All S. aureus strains were maintained in Trypticase Soy (TS) medium, and E. coli O157:H7 and Salmonella were routinely grown aerobically on Luria-Bertani (LB) media at 37° C. For measuring growth kinetics, an overnight culture of MRSA in Mueller-Hinton (MH) broth was diluted 100-fold in fresh MH broth and cultured until early exponential phase. The culture (200 μl) was transferred to each well of a sterile 96-well plate and incubated at 37° C. with bacitracin alone, alkyl gallate alone, and combination of bacitracin/alkyl gallates at various concentrations. The optical density at 600 nm (OD600) was measured every hour with FLUOstar® Omega (BMG Labtech, Germany).
(§2) Broth micro dilution assays were performed to determine the minimum inhibitory concentrations (MIC) accordance to the M7-A7 protocol of the Clinical and Laboratory Standards Institute (CLSI) guidelines^28. The susceptibility test was carried out with an initial bacterial inoculum of 1.5×10^5 CFU ml^−1. Alkyl gallates and bacitracin were serially diluted in a polystyrene 96 well plate and the plate was incubated at 37° C. for 24 h. Minimum bactericidal concentration (MBC) was determined by spotting 10 μl of cultures from MIC tests onto MH agar and incubated aerobically at 37° C.

MRSA USA300 (BAA-1680) [2] = assay: Growth kinetics (OD600) with bacitracin, alkyl gallates and combinations; assay type: cell-based, Staphylococcus aureus; conditions: bacitracin 0.001 U to 100 U
Source text: as §1

MRSA USA300 = assay: Biofilm assay (crystal violet); assay type: cell-based, Staphylococcus aureus; conditions: LG at different concentrations plus 10^−4 U bacitracin; 18 h; listed as LG
Description: Biofilm assays were performed as described previously^30. Briefly, overnight culture of MRSA was diluted 1:100 in TS broth and was grown in a 96-well microtiter plate in the presence or absence (a negative control) of combinations of bacitracin and lauryl gallate at different concentrations. After aerobic incubation at 37° C. for 18 h, biofilms were washed and stained with crystal violet. After washing unbound crystal violet, the absorbance at 630 nm was measured with FLUOstar Omega® (BMG Labtech).

MRSA 3095 = assay: microbe, parasite or virus in culture; assay type: cell-based, Staphylococcus aureus; conditions: Staphylococcus aureus
Source text: as §1, §2

MRSA 3795 = assay: microbe, parasite or virus in culture; assay type: cell-based, Staphylococcus aureus; conditions: Staphylococcus aureus
Source text: as §1, §2

MRSA 3799 = assay: microbe, parasite or virus in culture; assay type: cell-based, Staphylococcus aureus; conditions: for MIC: Staphylococcus aureus
Source text: as §1, §2

MRSA 3823 = assay: microbe, parasite or virus in culture; assay type: cell-based, Staphylococcus aureus; conditions: Staphylococcus aureus
Source text: as §1, §2

MRSA 3865 = assay: microbe, parasite or virus in culture; assay type: cell-based, Staphylococcus aureus; conditions: Staphylococcus aureus
Source text: as §1, §2

MRSA 3876 = assay: microbe, parasite or virus in culture; assay type: cell-based, Staphylococcus aureus; conditions: Staphylococcus aureus
Source text: as §1, §2

MRSA 3903 = assay: microbe, parasite or virus in culture; assay type: cell-based, Staphylococcus aureus; conditions: for MIC: Staphylococcus aureus
Source text: as §1, §2

MRSA 3A585 = assay: microbe, parasite or virus in culture; assay type: cell-based, Staphylococcus aureus; conditions: Staphylococcus aureus
Source text: as §1, §2

MRSA (ATCC 33593) = assay: microbe, parasite or virus in culture; assay type: cell-based, Staphylococcus aureus; conditions: MRSA; for MIC: antioxidant alone
Source text: as §1, §2
(§3) MICs were determined with MRSA and methicillin-sensitive S. aureus (MSSA) using a broth dilution method as described above.
(§4) MRSA and MSSA were cultured overnight with antioxidants (0.5 μg/ml) and bacitracin at various concentrations and 10 μL of the culture was spotted on MH agar plates and incubated aerobically at 37° C. to observe the bacterial viability. The results in FIGS. 9A, 9B, 9C and 9D (photographs of plates) show the Minimal Bactericidal Concentrations (MBCs) for indicated antioxidants. Bacitracin killed MRSA and MSSA at concentrations greater than or equal to 2 μg/mi.

MSSA (ATCC 29213) = assay: MIC (broth dilution) and MBC (spotting) of phenolic antioxidants and bacitracin; assay type: cell-based, Staphylococcus aureus; conditions: for MIC: antioxidant alone
Source text: as §1, §2, §3, §4

[3] = tested on: MRSA (normal MRSA strain, not USA300); assay: MRSA growth (optical density) with bacitracin and phenolic antioxidants; assay type: cell-based, Staphylococcus aureus
Source text: as §1
MRSA were grown with bacitracin (0.002 μg/mL) with antioxidant (as shown) at 0.5 μg/mL.
FIG. 7A is growth with no added bacitracin or lauryl gallate.
The optical density of MRSA was measured after 18 h culture with bacitracin (0.002 μg/ml) and antioxidants (as indicated at 0.5 μg/ml). Also measured were controls with no additions, with bacitracin alone and with antioxidant alone. FIGS. 8A, 8B, 8C and 8D are graphs illustrating the results.

Escherichia coli O157:H7 = assay: microbe, parasite or virus in culture; assay type: cell-based; conditions: for MBC / MIC: Escherichia coli
Source text: as §1, §2
(§5) MIC and MBC were measured as described above. MIC and MBC data are shown in Table 5 for both the Salmonella and the E. coli strain tested. The tested strains were highly resistant to bacitracin.

[4] = tested on: Salmonella enterica Typhimurium LT2; assay: MIC and MBC, alone and bacitracin/alkyl gallate combinations; assay type: cell-based; conditions: for MBC / MIC: Salmonella enterica, S. Typhimurium, agent alone
Source text: as §1, §2, §5

USA300 = assay: Bacterial membrane permeability (propidium iodide fluorescence); assay type: cell-based, Staphylococcus aureus
Description: Membrane permeability was determined by measuring fluorescence after exposure of USA300 to propidium iodide as described previously^29. Briefly, USA300 was grown in MH broth to the exponential phase and then diluted to OD600≈0.25. Propidium iodide was mixed with bacteria to a final concentration of 10 μM. […] Fluorescence was monitored at excitation and emission wavelengths of 585 nm and 620 nm, respectively, for 1 h using FLUOstar Omega® (BMG Labtech, Germany). The membrane permeability was calculated by subtracting fluorescence intensity of controls without treatment with phenolic compounds from that of treated samples. EDTA (1 mM) was used as a positive control.

[5] = tested on: human clinical isolates of MRSA with multidrug- and hyper-resistance; assay: Bactericidal activity of OG plus bacitracin against clinical isolates; assay type: cell-based, Staphylococcus aureus
Source text: as §1, with “The culture (200 μl) was transferred to each well of a sterile 96-well plate and incubated at 37° C. with bacitracin alone, alkyl gallate alone, and combination of bacitracin/alkyl gallates at various concentrations.” left out
Broth micro dilution assays were performed to determine the minimum inhibitory concentrations (MIC) accordance to the M7-A7 protocol of the Clinical and Laboratory Standards Institute (CLSI) guidelines^28. […] Minimum bactericidal concentration (MBC) was determined by spotting 10 μl of cultures from MIC tests onto MH agar and incubated aerobically at 37° C. […]

[6] = antioxidant 0.5 μg/ml, compared to bacitracin alone
[7] = Staphylococcus aureus, read-out: MIC

SMILES: CCCCCCCCCCCCOC(=O)c1cc(O)c(O)c(O)c1 [Lauryl gallate, lauryl gallate]
- MBC of bacitracin in combination with alkyl gallate (MRSA USA300 (BAA-1680) [1]): 10^−1 U
- fold decrease in bacitracin MBC (MRSA USA300 (BAA-1680) [1]): 2,000 fold
- bactericidal activity in combination with bacitracin (MRSA USA300 (BAA-1680) [1]): synergistic antimicrobial activity
- MBC (MRSA USA300 (BAA-1680) [1]): 64 µg/mL
- MIC (MRSA USA300 (BAA-1680) [1]): 32 µg/mL
- growth inhibition by bacitracin in combination with alkyl gallate (MRSA USA300 (BAA-1680) [2]): significant growth inhibition
- biofilm formation (MRSA USA300): substantial reduction in the level of biofilm formation; also recorded: significant anti-biofilm effects
- MIC (MRSA 3095; MRSA 3095 (human/skin), read-out: MIC): 64 µg/mL
- MIC (MRSA 3795; MRSA 3795 (human/nose), read-out: MIC): 64 µg/mL
- MIC (MRSA 3799; MRSA 3799 (human/nose), read-out: MIC): 32 µg/mL
- MIC (MRSA 3823; MRSA 3823 (human/nose), read-out: MIC): 64 µg/mL
- MIC (MRSA 3865; MRSA 3865 (human/skin), read-out: MIC): 64 µg/mL
- MIC (MRSA 3876; MRSA 3876 (human/skin), read-out: MIC): 64 µg/mL
- MIC (MRSA 3903; MRSA 3903 (human/skin), read-out: MIC): 64 µg/mL
- MIC (MRSA 3A585; MRSA 3A585 (human/blood), read-out: MIC): 64 µg/mL
- fold decrease of bacitracin MBC by antioxidant (MRSA (ATCC 33593); [6]): 512 fold
- MIC (MRSA (ATCC 33593)): 128 µg/mL
- MIC (MRSA (ATCC 33593); [7]): 64 µg/mL
- MIC (MSSA (ATCC 29213); [7]): 64 µg/mL
- fold decrease of bacitracin MBC by antioxidant (MSSA (ATCC 29213); [6]): > 1,000 fold
- MIC (MSSA (ATCC 29213)): 128 µg/mL
- growth of MRSA with bacitracin plus antioxidant ([3]; bacitracin 0.002 μg/mL, antioxidant 0.5 μg/mL, FIG. 6): significantly inhibited the growth of MRSA
- optical density of MRSA after 18 h culture: inhibition of growth in combination with bacitracin ([3]; bacitracin 0.002 μg/ml (ca. 0.0002 U), antioxidant 0.5 μg/ml, 18 h, FIG. 8): significantly inhibited MRSA
- concentration of lauryl gallate alone that inhibited MRSA growth ([3]; lauryl gallate 0.5 μg/mL to 256 μg/mL, FIG. 7C): 256 µg/mL
- MRSA growth inhibition by lauryl gallate in combination with bacitracin ([3]; lauryl gallate 0.5 μg/ml, bacitracin 0.0019 μg/mL to 1 μg/mL, FIG. 7D): synergistically inhibited MRSA growth
- synergistic effect with bacitracin (Escherichia coli O157:H7; E. coli O157:H7, FIG. 10): more moderate synergistic effects
- MBC (Escherichia coli O157:H7): 1020 µg/mL
- MIC (Escherichia coli O157:H7): 512 µg/mL
- MBC [4]: > 1020 µg/mL
- MIC [4]: > 1020 µg/mL
- synergistic effect with bacitracin ([4]; Salmonella, FIG. 10): more moderate synergistic effects

SMILES: CCCCCCCCOC(=O)c1cc(O)c(O)c(O)c1 [Octyl gallate (OG), octyl gallate]
- MBC of bacitracin in combination with alkyl gallate (MRSA USA300 (BAA-1680) [1]): 10^−3 U
- fold decrease in bacitracin MBC (MRSA USA300 (BAA-1680) [1]): 200,000 fold
- bactericidal activity in combination with bacitracin (MRSA USA300 (BAA-1680) [1]): Most significant bactericidal activity
- MBC of bacitracin in combination with OG (MRSA USA300 (BAA-1680) [1]; OG): 10^−4 U
- fold reduction in bacitracin MBC (MRSA USA300 (BAA-1680) [1]; OG): 2,000,000 fold
- MBC (MRSA USA300 (BAA-1680) [1]): 64 µg/mL
- MIC (MRSA USA300 (BAA-1680) [1]): 32 µg/mL
- growth inhibition by bacitracin in combination with alkyl gallate (MRSA USA300 (BAA-1680) [2]): completely inhibited the growth of USA300
- membrane permeability, OG in the presence of bacitracin (USA300; OG plus bacitracin): more significantly increased membrane permeability than OG treatment without bacitracin; also recorded: significantly altered membrane permeability
- membrane permeability (USA300; agent alone, sub-MIC levels, EDTA 1 mM): permeabilized the membrane in a concentration-dependent manner; also recorded: increased the membrane permeability
- MIC (MRSA 3095; MRSA): 16 µg/mL
- MIC (MRSA 3795; MRSA): 16 µg/mL
- MBC of bacitracin with OG (MRSA 3799; MRSA 3799, 5 μg ml^−1 OG): 10^−2 U
- MIC (MRSA 3799; MRSA): 16 µg/mL
- MIC (MRSA 3823; MRSA): 16 µg/mL
- MIC (MRSA 3865; MRSA): 16 µg/mL
- MIC (MRSA 3876; MRSA): 16 µg/mL
- MBC of bacitracin with OG (MRSA 3903; MRSA 3903, 5 μg ml^−1 OG): 10^−2 U
- MIC (MRSA 3903; MRSA): 16 µg/mL
- MIC (MRSA 3A585; MRSA): 16 µg/mL
- killing of clinical MRSA isolates by OG plus bacitracin ([5]; FIG. 3): successfully killed all the tested clinical MRSA isolates; also recorded: effectively killed clinical MRSA isolates
- bacitracin level at which most strains were killed with OG ([5]; most clinical MRSA strains, 5 μg ml^−1 OG): 10^−3 U
- fold change in bacitracin MBC (Escherichia coli O157:H7; E. coli O157:H7, 5 μg ml^−1 OG): > 1,000,000 fold
- MBC (Escherichia coli O157:H7): 512 µg/mL
- MIC (Escherichia coli O157:H7): 256 µg/mL
- MBC [4]: 512 µg/mL
- MIC [4]: 256 µg/mL
- fold change in bacitracin MBC ([4]; Salmonella, 5 μg ml^−1 OG): > 1,000,000 fold
